Assay results published in patent US10072034B2, “Kinase inhibitors” (Respivert Limited, priority 2016, dated 2018).
In brackets after ≈: the same amount, converted by molar mass. Where a name gives a salt, the structure may show the parent alone. Read-outs that look alike come from different tables or passages of the source.

Legend:
[1] = Solubility in fasted-state simulated colonic fluid (FaSSCoF) at pH 6.5; type: physicochemical; conditions: pH 6.5, 25° C.; for solubility thermodynamic at 24 h: fasted-state simulated colonic fluid (FaSSCoF), 25 °C, pH 6.5, fassgf or other biorelevant, thermodynamic from solid
Method: The solubilities of compounds of the invention in FaSSCoF at pH 6.5 are determined using a modification of a previously-reported procedure (Vertzoni, M., et al. Pharm. Res. 2010, 27, 2187-2196). In place of the bile salt extract employed in the original procedure (which extract is no longer available), the modified procedure uses a mixture of sodium taurocholate (0.15 g), glycocholic acid (0.15 g), ursodeoxycholic acid (0.05 g), cholic acid (0.05 g), and glycodeoxycholic acid (0.05 g). These five bile acids are ground together with a mortar and pestle to produce a fine white powder that is incorporated into the FaSSCoF, as outlined below.
FaSSCoF medium: Tris(hydroxymethyl)aminomethane (Tris; 0.275 g) and maleic acid (0.44 g) are dissolved in water (35 mL) to give a solution whose pH is adjusted to 6.5 by treatment with 0.5M NaOH (ca. 12 mL). The solution is then made up to 50 mL with water. A portion of this Tris/maleate buffer solution (ca. 25 mL) is added to a 0.5 L round-bottomed flask, before being treated with 0.00565 g of the bile acid mixture described above. Solutions of phosphatidylcholine (0.0111 g) in DCM (0.15 mL) and palmitic acid (0.0013 g) in DCM (0.15 mL) are added, then the organic solvent is evaporated off under reduced pressure at 40° C. until a clear solution, with no perceptible DCM odour, is achieved. The volume of the evaporated solution is adjusted to 50 mL by addition of the remainder of Tris/maleate buffer, then BSA (0.115 g) is added, before being dissolved by gentle agitation.
Solubility Determination: Test compounds are suspended in the pH 6.5 FaSSCoF medium to give a maximum final concentration of 2-10 mg/mL. The suspensions are equilibrated at 25° C. for 24 h, before being filtered through a glass fibre C filter. The filtrates are then diluted as appropriate for injection and quantification by HPLC with reference to a standard. Different volumes of the standard, diluted and undiluted sample solutions are injected and the solubilities are calculated using the peak areas determined by integration of the peak found at the same retention time as the principal peak in the standard injection.

IL-8 release in PBMCs = experiment: LPS-induced IL-8 release in PBMC cells (assay (b)); type: cell-based; conditions: Homo sapiens, LPS-stimulated PBMCs
Text: Peripheral blood mononuclear cells (PBMCs) from healthy subjects are separated from whole blood using a density gradient (Lymphoprep, Axis-Shield Healthcare). […] The supernatant is harvested for determination of IL-8 and TNFα concentrations by sandwich ELISA (Duo-set, R&D systems) and read on the fluorescence microplate reader (Varioskan® Flash, ThermoFisher Scientific).

[2] = Run 1, read-out: pH 6.5 FaSSCoF Solubility Run 1
[3] = Run 2, read-out: pH 6.5 FaSSCoF Solubility Run 2

COc1cc(Nc2cc(Oc3ccc(NC(=O)Nc4cc(C(C)(C)C)on4)c4ccccc34)ccn2)cc(OCCOCCOCC(=O)O)c1 [Example 17, 2-(2-(2-(3-((4-((4-(3-(5-(tert-Butyl)isoxazol-3-yl)ureido)naphthalen-1-yl)oxy)pyridin-2-yl)amino)-5-methoxyphenoxy)ethoxy)ethoxy)acetic acid]
solubility thermodynamic at 24 h [1, 2]: 1700 µg/mL (≈ 2480 µM)
solubility thermodynamic at 24 h [1, 3]: 1500 µg/mL (≈ 2190 µM)

CCS(=O)(=O)c1cc(C(C)(C)C)cc(NC(=O)Nc2ccc(Oc3ccnc(Nc4cc(OC)cc(OCCOCCOCC(=O)O)c4)c3)c3ccccc23)c1OC [Example 15]
IC50 (IL-8 release in PBMCs): 0.0164 µM

COc1cc(Nc2cc(Oc3ccc(NC(=O)Nc4cc(C(C)(C)C)cc(NS(C)(=O)=O)c4OC)c4ccccc34)ccn2)cc(OCCOCc2cc(C(=O)O)co2)c1 [Example 12, 5-((2-(3-((4-((4-(3-(5-(tert-Butyl)-2-methoxy-3-(methylsulfonamido)phenyl)ureido)naphthalen-1 yl)oxy)pyridin-2-yl)amino)-5-methoxyphenoxy)ethoxy)methyl)furan-3-carboxylic acid]
IC50 (IL-8 release in PBMCs): 0.0056 µM

COc1cc(Nc2cc(Oc3ccc(NC(=O)Nc4cc(C(C)(C)C)cc(NS(C)(=O)=O)c4OC)c4ccccc34)ccn2)cc(OCCOCCOCC(=O)NS(C)(=O)=O)c1 [Example 6]
IC50 (IL-8 release in PBMCs): 0.0181 µM

COc1cc(Nc2cc(Oc3ccc(NC(=O)Nc4cc(C(C)(C)C)cc(NS(C)(=O)=O)c4OC)c4ccccc34)ccn2)cc(OCCOCCSCC(=O)O)c1 [Example 19, 2-((2-(2-(3-((4-((4-(3-(5-(tert-Butyl)-2-methoxy-3-(methylsulfonamido)phenyl)ureido)-naphthalen-1-yl)oxy)pyridin-2-yl)amino)-5-methoxyphenoxy)ethoxy)ethyl)thio)acetic acid]
IC50 (IL-8 release in PBMCs): 0.0029 µM
solubility thermodynamic at 24 h [1, 2]: 30 µg/mL (≈ 36 µM)
solubility thermodynamic at 24 h [1, 3]: 30 µg/mL (≈ 36 µM)

[2H]C([2H])([2H])Oc1c(NC(=O)Nc2ccc(Oc3ccnc(Nc4cc(OC)cc(OCCOCCOCC(=O)O)c4)c3)c3ccccc23)cc(C(C)(C)C)cc1NS(C)(=O)=O [Example 5, 2-(2-(2-(3-((4-((4-(3-(5-(tert-Butyl)-2-(methoxy-d3)-3-(methylsulfonamido)phenyl)ureido)-naphthalen-1-yl)oxy)pyridin-2-yl)amino)-5-methoxyphenoxy)ethoxy)ethoxy)acetic acid]
IC50 (IL-8 release in PBMCs): 0.0195 µM

COc1cc(Nc2cc(Oc3ccc(NC(=O)Nc4cc(C(C)(C)C)cc(NS(C)(=O)=O)c4OC)c4ccccc34)ccn2)cc(C(=O)NCCOCCOCC(=O)O)c1 [Example 1, 2-(2-(2-(3-((4-((4-(3-(5-(tert-Butyl)-2-methoxy-3-(methylsulfonamido)phenyl)ureido)-naphthalen-1-yl)oxy)pyridin-2-yl)amino)-5-methoxybenzamido)ethoxy)ethoxy)acetic acid, hydrochloride salt]
IC50 (IL-8 release in PBMCs): 0.115 µM

CCS(=O)(=O)Nc1cc(C(C)(C)C)cc(NC(=O)Nc2ccc(Oc3ccnc(Nc4cc(OC)cc(OCCOCCOCC(=O)O)c4)c3)c3ccccc23)c1OC [Example 16]
IC50 (IL-8 release in PBMCs): 0.0163 µM

COc1cc(Nc2nccc(Oc3ccc(NC(=O)Nc4cc(C(C)(C)C)cc(NS(C)(=O)=O)c4OC)c4ccccc34)n2)cc(OCCOCCOCCC(=O)O)c1 [Reference Compound A (sodium salt), reference compound]
solubility thermodynamic at 24 h ([1]; Run 3, read-out: pH 6.5 FaSSCoF Solubility Run 3): 30 µg/mL
solubility thermodynamic at 24 h ([1]; Run 4, read-out: pH 6.5 FaSSCoF Solubility Run 4): 30 µg/mL
pH 6.5 FaSSCoF Solubility Run 1 ([1]; 24 h, Run 1): 0.18 mg/mL
pH 6.5 FaSSCoF Solubility Run 2 ([1]; 24 h, Run 2): 0.12 mg/mL

COc1cc(Nc2cc(Oc3ccc(NC(=O)Nc4cc(C(C)(C)C)cc(NS(C)(=O)=O)c4OC)c4ccccc34)ccn2)cc(OCCOCCn2cc(C(=O)O)cn2)c1 [Example 22]
IC50 (IL-8 release in PBMCs): 0.0181 µM

COc1cc(Nc2cc(Oc3ccc(NC(=O)Nc4cc(C(C)(C)C)cc(NS(C)(=O)=O)c4OC)c4ccccc34)ccn2)cc(OCCOCCOC(C)C(=O)O)c1 (centres unmarked) [Example 14]
solubility thermodynamic at 24 h [1, 2]: 1200 µg/mL (≈ 1440 µM)
solubility thermodynamic at 24 h [1, 3]: 1100 µg/mL (≈ 1320 µM)

COc1cc(Nc2cc(Oc3ccc(NC(=O)Nc4cc(C(C)(C)C)cc([S+](C)[O-])c4OC)c4ccccc34)ccn2)cc(OCCOCCOCC(=O)O)c1 (centres unmarked) [Example 8, 2-(2-(2-(3-((4-((4-(3-(5-(tert-Butyl)-2-methoxy)-3-(methylsulfinyl)phenylureido)naphthalen-1-yl)oxy)pyridin-2-yl)amino)-5-methoxyphenoxy)ethoxy)ethoxy)acetic acid]
IC50 (IL-8 release in PBMCs): 0.008 µM
solubility thermodynamic at 24 h [1, 2]: 2800 µg/mL (≈ 3560 µM)
solubility thermodynamic at 24 h [1, 3]: 3200 µg/mL (≈ 4070 µM)

COc1cc(Nc2cc(Oc3ccc(NC(=O)Nc4cc(C(C)(C)C)cc(P(C)(C)=O)c4OC)c4ccccc34)ccn2)cc(OCCOCCOCC(=O)O)c1 [Example 10, 2-(2-(2-(3-((4-((4-(3-(5-(tert-Butyl)-3-(dimethylphosphoryl)-2-methoxyphenyl)ureido)-naphthalen-1-yl)oxy)pyridin-2-yl)amino)-5-methoxyphenoxy)ethoxy)ethoxy)acetic acid]
IC50 (IL-8 release in PBMCs): 0.0265 µM

COc1cc(Nc2cc(Oc3ccc(NC(=O)Nc4cc(C(C)(C)C)cc(NS(C)(=O)=O)c4OC)c4ccccc34)ccn2)cc(OCCOCCOC(C)C(=O)O)c1 (single isomer, unassigned) [20(a)]
solubility thermodynamic at 24 h [1, 2]: 620 µg/mL (≈ 745 µM)
solubility thermodynamic at 24 h [1, 3]: 640 µg/mL (≈ 769 µM)

COc1c(NC(=O)Nc2ccc(Oc3ccnc(Nc4cc(OCCOCCOCC(=O)O)cc(OC(F)F)c4)c3)c3ccccc23)cc(C(C)(C)C)cc1NS(C)(=O)=O [Example 28]
IC50 (IL-8 release in PBMCs): 0.0206 µM

COc1cc(Nc2cc(Oc3ccc(NC(=O)Nc4cc(C(C)(C)C)cc(NS(C)(=O)=O)c4OC)c4ccccc34)ccn2)cc(OCCOCC2CC(C(=O)O)CO2)c1 (centres unmarked) [Example 13, 5-((2-(3-((4-((4-(3-(5-(tert-Butyl)-2-methoxy-3-methylsulfonamido)phenylureido)naphthalen-1-yl)oxy)pyridin-2-yl)amino)-5-methoxyphenoxy)ethoxy)methyl)tetrahydrofuran-3-carboxylic acid]
IC50 (IL-8 release in PBMCs): 0.0028 µM

COc1cc(Nc2cc(Oc3ccc(NC(=O)Nc4cc(C(C)(C)C)cc(NS(C)(=O)=O)c4OC)c4ccccc34)ccn2)cc(OCCOCCOCc2cc(=O)o[nH]2)c1 [Example 18]
IC50 (IL-8 release in PBMCs): 0.0293 µM

COc1cc(Nc2cc(Oc3ccc(NC(=O)Nc4cc(C(C)(C)C)cc(NS(C)(=O)=O)c4OC)c4ccccc34)ccn2)cc(OCCOCCOCC(=O)NS(=O)(=O)N(C)C)c1 [Example 25]
IC50 (IL-8 release in PBMCs): 0.0263 µM

COc1cc(Nc2cc(Oc3ccc(NC(=O)Nc4cc(C(C)(C)C)cc(S(C)(=O)=O)c4OC)c4ccccc34)ccn2)cc(OCCOCCOCC(=O)O)c1 [Example 9, 2-(2-(2-(3-((4-((4-(3-(5-(tert-Butyl)-2-methoxy-3-(methylsulfonyl)phenyl)ureido)naphthalen-1-yl)oxy)pyridin-2-yl)amino)-5-methoxphenoxy)ethoxy)ethoxy)acetic acid]
IC50 (IL-8 release in PBMCs): 0.0117 µM
solubility thermodynamic at 24 h [1, 2]: 460 µg/mL (≈ 573 µM)
solubility thermodynamic at 24 h [1, 3]: 540 µg/mL (≈ 673 µM)

COc1cc(Nc2cc(Oc3ccc(NC(=O)Nc4cc(C(C)(C)C)cc(NS(C)(=O)=O)c4OC)c4ccccc34)ccn2)cc(OCCOCc2ccc(C(=O)O)s2)c1 [Example 26]
IC50 (IL-8 release in PBMCs): 0.0153 µM

COc1cc(Nc2cc(Oc3ccc(NC(=O)Nc4cc(C(C)(C)C)cc(NS(C)(=O)=O)c4OC)c4ccccc34)ccn2)cc(OCCOCc2cc(C(=O)O)cs2)c1 [Example 27]
IC50 (IL-8 release in PBMCs): 0.0073 µM

COc1cc(Nc2cc(Oc3ccc(NC(=O)Nc4cc(C(C)(C)C)cc(NS(C)(=O)=O)c4OC)c4ccccc34)ccn2)cc(OCCOCC(=O)O)c1 [Example 24]
IC50 (IL-8 release in PBMCs): 0.0619 µM

COc1cc(Nc2cc(Oc3ccc(NC(=O)Nc4cc(C(C)(C)C)cc(NS(C)(=O)=O)c4OC)c4ccccc34)ccn2)cc(OCCOCCOC(C)(C)C(=O)O)c1 [Example 21]
IC50 (IL-8 release in PBMCs): 0.0144 µM
